Assay results taken from patent US7902361B2, “Pyrimidin-4-yl-3, 4-thione compounds and their use in therapy” (Cyclacel Limited, priority 2003, dated 2011).
Marks after values point to notes of the source that are not given here.

Legend:
HIV-1 = HIV-1 in human PBMCs, seven days following infection
Protocol: Representative compounds of the present invention were tested for antiviral activity against HIV-1 in human peripheral blood mononuclear cells (PBMCs) using the clinical paediatric HIV strains RoJo or WeJo. PBMCs were cultured under conditions which promote cell survival and HIV replication.
Fresh PBMCs, seronegative for HIV and HBV, were isolated from screened donors (Interstate Blood Bank, Inc. Memphis, Tenn.). Cells were pelleted/washed 2-3 times by low speed centrifugation and re-suspension in PBS to remove contaminating platelets. […] Banded PBMCs were gently aspirated from the resulting interface and subsequently washed with PBS by low speed centrifugation. […] The cells were allowed to incubate at 37° C. […] IL-2 is included in the culture medium to maintain the cell division initiated by the PHA mitogenic stimulation. PBMCs were maintained in this with bi-weekly medium changes until used in the assay protocol. Cells were kept in culture for a maximum of two weeks before being deemed too old for use in assays and discarded. Monocytes were depleted from the culture as the result of adherence to the tissue culture flask.
For the standard PBMC assay, PHA-P stimulated cells from at least two normal donors were pooled, diluted and plated in the interior wells of a 96-well round bottom microplate. Pooling of mononuclear cells from more than one donor was used to minimise the variability observed between individual donors, which results from quantitative and qualitative differences in HIV infection and overall response to the PHA and IL-2 of primary lymphocyte populations. Each plate contained virus/cell control wells (cells plus virus), experimental wells (drug plus cells plus virus) and compound control wells (drug plus media without cells, necessary for MTS monitoring of cytotoxicity). Since HIV-1 is not cytopathic to PBMCs, this allows the use of the same assay plate for both antiviral activity and cytotoxicity measurements. Test drug dilutions were prepared in microtiter tubes and each concentration was placed in appropriate wells using the standard format. A predetermined dilution of virus stock was placed in each test well (final MOI≅0.1). The PBMC cultures were maintained for seven days following infection at 37° C., 5% CO2 After this period, cell-free supernatant samples were collected for analysis of reverse transcriptase activity and/or HIV p24 content. Following removal of supernatant samples, compound cytotoxicity was measured by addition of MTS to the plates for determination of cell viability. Wells were also examined microscopically and any abnormalities were noted.
Tritiated thymidine triphosphate (^3H-TTP, 80 Ci/mmol, NEN) was received in 1:1 dH2O:Ethanol at 1 mCi/mL. Poly rA:oligo dT template:primer (Pharmacia) was prepared as a stock solution, followed by aliquoting and storage at −20° C. The RT reaction buffer was prepared fresh on a daily basis. The final reaction mixture was prepared by combining ^3H-TTP, dH2O, poly rA:oligo dT stock and reaction buffer. This reaction mixture was placed in a round bottom microtiter plate and supernatant containing virus was added and mixed. The plate was incubated at 37° C. for 60 minutes. Following incubation, the reaction volume was spotted onto DE81 filter-mats (Wallac), in a sodium phosphate buffer or 2×SSC (Life Technologies). Next they were washed in distilled water, in 70% ethanol, and then dried. Incorporated radioactivity (counts per minute, CPM) was quantified using standard liquid scintillation techniques.

CDK4/cyclin D1 = CDK4/cyclin D1 (Homo sapiens, UniProt P11802); assay: Kinase assay CDK4/cyclin D1; type: biochemical; conditions: Ki calculated (Cheng-Prusoff) from experimentally determined IC50 and Km,ATP; read-out: Kinase Inhibition Ki CDK4 - cyclin D1
In short: (§1)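 Radiometric filter assays used recombinant kinases or complexes (2-4 μg) with appropriate polypeptide substrates in pH 7.4 β-glycerophosphate/MOPS buffer. Reactions were started with 15 mM MgCl2 and 100 μM ATP containing [γ-32P]-ATP and run at 30° C. Phosphate incorporated into substrate was counted by scintillation after washing.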

CDK9/cyclin T1 = CDK9/cyclin T1 (Homo sapiens, UniProt P50750); assay: Kinase assay CDK9/cyclin T1; type: biochemical; conditions: Ki calculated (Cheng-Prusoff) from experimentally determined IC50 and Km,ATP; read-out: Kinase Inhibition Ki CDK9 - cyclin T1
In short: as §1

CDK2/cyclin A = CDK2/cyclin A (Homo sapiens, UniProt P24941); assay: Kinase assay CDK2/cyclin A; type: biochemical; conditions: Ki calculated (Cheng-Prusoff) from experimentally determined IC50 and Km,ATP; read-out: Kinase Inhibition Ki CDK2 - cyclin A
In short: (§2)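 Radiometric assays measured transfer of radioactive phosphate from ATP onto polypeptide substrates, using 2-4 μg recombinant active enzyme in buffer typically containing 25 mM β-glycerophosphate, 20 mM MOPS, 5 mM EGTA, 1 mM DTT and 1 mM Na3VO3 at pH 7.4. Reactions were stopped on ice, filtered on P81 or GF/C plates and washed with orthophosphoric acid. Incorporated radioactivity was scintillation-counted.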

CDK2/cyclin E = CDK2/cyclin E (Homo sapiens, UniProt P24941); assay: Kinase assay CDK2/cyclin E; type: biochemical; conditions: Ki calculated (Cheng-Prusoff) from experimentally determined IC50 and Km,ATP; read-out: Kinase Inhibition Ki CDK2 - cyclin E
In short: as §2

aurora A = target: T1, aurora A (Homo sapiens, UniProt O14965); assay: Kinase assay aurora A; type: biochemical; conditions: Ki calculated (Cheng-Prusoff) from experimentally determined IC50 and Km,ATP; read-out: Kinase Inhibition Ki Aurora A
T1 sequence (O14965 1-403): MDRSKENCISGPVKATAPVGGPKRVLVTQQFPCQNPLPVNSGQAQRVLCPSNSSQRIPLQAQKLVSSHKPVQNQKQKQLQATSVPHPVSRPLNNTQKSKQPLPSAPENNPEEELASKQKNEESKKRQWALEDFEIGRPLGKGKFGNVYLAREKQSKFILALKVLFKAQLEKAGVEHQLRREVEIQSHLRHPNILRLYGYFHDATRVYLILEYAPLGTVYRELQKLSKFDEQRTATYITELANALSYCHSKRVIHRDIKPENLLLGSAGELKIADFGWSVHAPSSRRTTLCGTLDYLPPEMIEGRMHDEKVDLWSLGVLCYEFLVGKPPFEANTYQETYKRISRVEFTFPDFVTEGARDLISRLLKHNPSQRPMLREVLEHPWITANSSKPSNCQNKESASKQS
In short: as §2

CDK7/cyclin H = CDK7/cyclin H (Homo sapiens, UniProt P50613); assay: Kinase assay CDK7/cyclin H; type: biochemical; conditions: Ki calculated (Cheng-Prusoff) from experimentally determined IC50 and Km,ATP; read-out: Kinase Inhibition Ki CDK7 - cyclin H
In short: as §1

GSK3β = target: T2, GSK3β (Homo sapiens, UniProt P49841); assay: GSK3β in vitro kinase assay; type: biochemical; conditions: recombinant human GSK3β, 100 μM ATP
T2 construct: purchased New England Biolabs
In short: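 Radiometric filter-binding assay with GSK3β (1.5 units), 200 μM CREB phosphopeptide, 100 μM ATP plus [γ-32P]ATP, in 20 mM Tris HCl pH7.5, 5 mM DTT, 15 mM MgCl2, 2% DMSO; 30 min at 30° C, stopped with phosphoric acid. 32P incorporation counted by scintillation; IC50 from 10-point titration.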

CDK1/cyclin B = CDK1/cyclin B (Homo sapiens, UniProt P06493); assay: Kinase assay CDK1/cyclin B (radioactive phosphate incorporation); type: biochemical; conditions: Ki calculated (Cheng-Prusoff) from experimentally determined IC50 and Km,ATP; read-out: Kinase Inhibition Ki CDK1 - cyclin B
In short: as §2

GSK3α = target: T3, GSK3α (Homo sapiens, UniProt P49840); assay: GSK3α in vitro kinase assay; type: biochemical; conditions: recombinant human GSK3α, 100 μM ATP
T3 construct: purchased Upstate
Protocol: Both isoforms of GSK3 (α and β) are involved in the regulation of glycogen synthase activity—key enzyme in the glycogen metabolism. The inhibitory potency of example compounds was determined using in vitro kinase assays with recombinant human GSK3-α and -β; the IC50 values determined are presented in Table 9.
A 10-point titration was set up to determine the IC50 values of selected example compounds against GSK3β. Assays were performed using 96-well microtiter plates with a final volume of 25 μL per well. Each assay contained 1.5 units of GSK3β(New England Biolabs), 200 μM CREB phosphopeptide ([…]pSYR, Alta Biosciences), 20 mM Tris HCl pH7.5, 5 mM DTT, 15 mM MgCl2 supplemented with 100 μM ATP and 0.5 μCi of [γ-^32P] ATP plus or minus inhibitor in 2% DMSO. Assays were carried out for 30 minutes at 30° C. before stopping the reaction by the addition of an equal volume of 75 mM aqueous phosphoric acid. Samples were then spotted onto a p81 filterplate (Whatman) and a vacuum was applied. Wells were washed 3 times with 200 μL of dilute aqueous phosphoric acid before the addition of 50 μL Microscint 40 per well. Incorporation of radioactivity was determined on a Topcount microplate scintillation counter (Packard).
GSK3α (Upstate) was assayed exactly as described above except that 1 ng of enzyme was added per assay point.

[1] = Blood levels of test compounds in ZDF fa/fa rats; type: in vivo, rat; conditions: 30 mg/kg per os twice
Protocol: (§3) The ability of example compounds of the present invention to improve glucose metabolism was tested in 12-13 week old male ZDF fa/fa rats. The test animals (10-15 mmol/L fasting glucose level) were dosed twice at 30 mg/kg and the glucose challenge was given at time 0. […] Most of these blood levels were below the EC50 values determined in cellular assays.
(§4) 12-13 weeks old male ZDF fa/fa rats were used to study the effect of example compounds on oral glucose tolerance. […] Body weight was recorded three times per week. Test compounds were dissolve in a formulation of 10% DMSO, 5% Tween, 5% Span 20, 30% PEG 400 and 50% water (v/v) to provide final solutions at 5 mg/mL concentration. Each experimental group contained 7 animals. After an 16 h overnight fast the test compounds were administered at 30 mg/kg per os twice (at −270 min and −30 min) before the oral glucose tolerance test was commenced (2 g glucose/kg per os as a 40% solution introduced via feeding tube). A control group was dosed in a similar manner with the vehicle only. Blood sampling for blood glucose measurement (20 μL blood) was performed at −270, 0, 15, 30, 60, 90, 120 and 180 min. Mixed venous blood was collected from the tail vein into 20-μL glass capillaries, which were placed in a standard tube filled with 1 mL solution for hemolysis. Glucose levels were measured using the glucose oxidase procedure (Super G Glukosemessgeraet; Dr Mueller Geraetebau, Freital, Germany). In addition, 50 μL blood samples were taken at 30 and 60 min after the glucose dose, placed in heparinized tubes, which were then frozen immediately in liquid nitrogen. The bioanalytical method used employed isocratic elution liquid chromatography—tandem mass spectrometry in electrospray positive ion multiple reaction monitoring mode.

DYRK1A = target: T4, DYRK1A (Homo sapiens, UniProt Q13627); assay: DYRK1A in vitro kinase assay; type: biochemical; conditions: recombinant human DYRK1A, 100 μM ATP
T4 construct: purchased Upstate
Description: Dual specificity tyrosine phosphorylation regulated kinase 1A (DYRK1A) has been proposed, amongst other functions, to play a role in the regulation of glycogen metabolism in a way similar to GSK3. Some of the example compounds of the present invention were screened against recombinant human DYRK1A in vitro and the determined IC50 values are shown in Table 9. According to our current knowledge inhibition of DYRK1A will have additional positive effect on stimulation of glycogen synthase.
A 10-point titration was set up to determine the IC50 values of selected example compounds against DYRK1A. Assays were performed using 96-well microtiter plates and a final volume of 25 μL/well. Each assay contained 2.3 milliunits of DYRK1A (Upstate), 50 μM Woodtide peptide ([…], Upstate), 20 mM Tris HCl pH 8.0, 10 mM DTT, 5 mM EGTA, 1 mM NaVO3, 31 mM β-glycerophosphate, 15 mM MgCl2 supplemented with 100 μM ATP and 0.5 μCi of [γ-^32P] ATP plus or minus inhibitor in 2% DMSO. Assays were carried out for 60 minutes at 30° C. before stopping the reaction by the addition of an equal volume of 75 mM aqueous phosphoric acid. Samples were then spotted onto a p81 filterplate (Whatman) and a vacuum applied. Wells were washed 3 times with 200 μL of dilute aqueous phosphoric acid before the addition of 50 μL Microscint 40 per well. Incorporation of radioactivity was determined on a Topcount microplate scintillation counter (Packard).

[2] = Oral glucose tolerance in male ZDF fa/fa rats; type: in vivo, rat
Protocol: as §3, §4

PEPCK gene expression = PEPCK gene expression assay - qPCR in HEPG2 cells; type: cell-based; conditions: HEPG2; 100 nM + Dex/cAMP
Protocol: PEPCK gene expression was studied in HEPG2 (hepatocarcinoma) cells, seeded in 6-well plate at […] per well. The cells were serum-starved for 20 hours before treatment with dexamethasone/cAMP (stimulator of PEPCK gene expression) in the presence or absence of insulin or GSK3 inhibitor example compounds. After 3 hours treatment the cells were harvested, lysed and RNA extracted using mini RNeasy spin columns (Quiagen). The primer set COD2063/COD2064 (350 bp) was used for the PEPCK gene. The one step RT-PCR was carried out using the Lightcycler-RNA Master SYBR Green 1 Kit. The qPCR analysis calculates the number of the PCR cycles required for the PCR product amplification to reach logarithmic phase. QPCR for a housekeeping gene—28S—was used for normalisation. PEPCK is a key enzyme in gluconeogenesis in the liver and it is known to be negatively regulated by insulin via inhibition of GSK3. The effect of example compounds on PEPCK gene expression was studied in HEPG2 cells treated with dexamethasone/cAMP (a positive regulator PEPCK gene expression) in the presence or absence of insulin or GSK3 inhibitors. Example compound inhibitors of GSK3 were efficient in the abolishment of dexamethasone/cAMP induced stimulation of PEPCK gene expression in HEPG2 cells.

[3] = ZDF fa/fa rats, oral glucose tolerance, 30 mg/kg per os twice (−270 and −30 min)
[4] = male ZDF fa/fa rats, 30 mg/kg per os twice, oral glucose tolerance test

T3 sequence (P49840 whole entry): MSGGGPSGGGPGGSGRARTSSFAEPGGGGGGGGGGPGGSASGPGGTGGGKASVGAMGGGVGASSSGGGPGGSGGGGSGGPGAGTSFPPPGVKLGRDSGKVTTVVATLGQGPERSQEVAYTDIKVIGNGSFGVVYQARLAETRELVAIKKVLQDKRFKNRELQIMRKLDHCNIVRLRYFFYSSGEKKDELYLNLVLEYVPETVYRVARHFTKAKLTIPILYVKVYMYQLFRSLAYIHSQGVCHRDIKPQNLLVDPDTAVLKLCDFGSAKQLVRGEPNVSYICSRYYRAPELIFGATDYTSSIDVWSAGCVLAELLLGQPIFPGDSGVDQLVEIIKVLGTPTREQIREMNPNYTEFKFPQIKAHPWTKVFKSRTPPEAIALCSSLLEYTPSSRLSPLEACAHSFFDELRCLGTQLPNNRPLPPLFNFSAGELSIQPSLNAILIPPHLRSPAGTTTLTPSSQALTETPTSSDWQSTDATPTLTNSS
Sequence of CDK7/cyclin H (P50613 whole entry, species assumed): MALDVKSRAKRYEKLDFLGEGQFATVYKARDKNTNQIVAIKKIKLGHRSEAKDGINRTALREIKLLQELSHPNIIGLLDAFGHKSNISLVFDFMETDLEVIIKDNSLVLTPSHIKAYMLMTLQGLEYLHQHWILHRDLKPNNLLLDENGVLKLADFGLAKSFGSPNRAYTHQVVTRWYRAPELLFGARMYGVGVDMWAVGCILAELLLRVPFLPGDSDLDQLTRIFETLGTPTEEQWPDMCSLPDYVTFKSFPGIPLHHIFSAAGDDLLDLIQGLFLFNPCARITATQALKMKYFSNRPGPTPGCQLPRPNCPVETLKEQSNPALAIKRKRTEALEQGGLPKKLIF
Sequence of CDK7/cyclin H (P51946 whole entry partner, species assumed): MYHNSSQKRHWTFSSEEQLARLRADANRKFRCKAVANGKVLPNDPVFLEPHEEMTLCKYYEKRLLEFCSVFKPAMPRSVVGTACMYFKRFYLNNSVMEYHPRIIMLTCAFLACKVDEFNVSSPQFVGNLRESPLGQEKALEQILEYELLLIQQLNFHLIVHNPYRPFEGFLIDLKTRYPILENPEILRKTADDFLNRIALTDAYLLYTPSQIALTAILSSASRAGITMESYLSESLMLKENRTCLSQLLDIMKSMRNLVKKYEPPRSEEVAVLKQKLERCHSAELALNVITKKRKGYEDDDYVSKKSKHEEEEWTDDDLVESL
T2 sequence (P49841 whole entry): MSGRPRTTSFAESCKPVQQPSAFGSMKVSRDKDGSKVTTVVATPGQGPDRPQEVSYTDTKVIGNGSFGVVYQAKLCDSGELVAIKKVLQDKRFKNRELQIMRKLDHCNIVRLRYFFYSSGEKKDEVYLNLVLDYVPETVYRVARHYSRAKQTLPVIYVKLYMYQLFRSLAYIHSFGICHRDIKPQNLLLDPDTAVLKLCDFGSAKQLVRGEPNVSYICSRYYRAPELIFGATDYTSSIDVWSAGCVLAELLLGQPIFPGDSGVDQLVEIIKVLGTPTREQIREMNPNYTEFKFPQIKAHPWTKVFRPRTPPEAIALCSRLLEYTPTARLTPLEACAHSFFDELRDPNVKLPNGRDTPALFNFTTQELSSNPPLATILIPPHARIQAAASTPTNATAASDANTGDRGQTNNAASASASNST
Sequence of CDK9/cyclin T1 (P50750 whole entry, species assumed): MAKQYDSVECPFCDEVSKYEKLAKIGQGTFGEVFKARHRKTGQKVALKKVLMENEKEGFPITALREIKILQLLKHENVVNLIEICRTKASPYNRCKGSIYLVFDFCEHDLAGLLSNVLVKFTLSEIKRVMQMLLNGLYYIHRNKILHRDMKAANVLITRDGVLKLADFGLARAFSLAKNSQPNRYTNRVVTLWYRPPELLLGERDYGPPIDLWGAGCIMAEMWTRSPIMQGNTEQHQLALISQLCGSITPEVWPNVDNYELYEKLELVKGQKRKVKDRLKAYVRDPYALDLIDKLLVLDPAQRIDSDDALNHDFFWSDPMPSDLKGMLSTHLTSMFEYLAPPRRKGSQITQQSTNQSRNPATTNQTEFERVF
Sequence of CDK9/cyclin T1 (O60563 whole entry partner, species assumed): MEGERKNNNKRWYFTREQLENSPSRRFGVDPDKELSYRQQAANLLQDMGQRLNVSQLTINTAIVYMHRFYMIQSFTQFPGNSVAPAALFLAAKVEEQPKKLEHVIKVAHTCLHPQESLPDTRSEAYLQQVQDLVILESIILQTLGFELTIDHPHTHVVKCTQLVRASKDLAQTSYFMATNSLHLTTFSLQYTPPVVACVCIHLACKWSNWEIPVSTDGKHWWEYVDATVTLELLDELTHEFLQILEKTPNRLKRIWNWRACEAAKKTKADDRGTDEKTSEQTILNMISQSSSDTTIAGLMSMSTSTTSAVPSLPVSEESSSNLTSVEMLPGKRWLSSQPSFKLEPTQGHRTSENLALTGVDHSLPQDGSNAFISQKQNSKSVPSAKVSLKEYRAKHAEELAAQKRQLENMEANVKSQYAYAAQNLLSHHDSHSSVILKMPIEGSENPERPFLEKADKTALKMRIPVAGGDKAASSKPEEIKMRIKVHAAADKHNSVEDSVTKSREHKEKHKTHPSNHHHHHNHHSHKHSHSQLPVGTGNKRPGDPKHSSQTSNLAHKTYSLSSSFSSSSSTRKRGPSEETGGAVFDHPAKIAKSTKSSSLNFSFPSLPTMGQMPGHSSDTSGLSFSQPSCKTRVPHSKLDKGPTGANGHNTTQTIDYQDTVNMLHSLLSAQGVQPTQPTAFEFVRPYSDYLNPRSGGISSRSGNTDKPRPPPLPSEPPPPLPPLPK
Sequence of CDK4/cyclin D1 (P11802 whole entry, species assumed): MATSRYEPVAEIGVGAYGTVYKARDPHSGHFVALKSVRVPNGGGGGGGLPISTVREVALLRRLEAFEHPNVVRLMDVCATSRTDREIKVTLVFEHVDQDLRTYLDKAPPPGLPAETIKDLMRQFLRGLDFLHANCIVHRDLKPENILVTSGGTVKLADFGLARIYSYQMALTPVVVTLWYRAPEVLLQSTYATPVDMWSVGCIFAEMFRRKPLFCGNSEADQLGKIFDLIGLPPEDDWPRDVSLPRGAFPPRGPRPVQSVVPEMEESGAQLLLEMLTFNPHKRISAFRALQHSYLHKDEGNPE
Sequence of CDK4/cyclin D1 (P24385 whole entry partner, species assumed): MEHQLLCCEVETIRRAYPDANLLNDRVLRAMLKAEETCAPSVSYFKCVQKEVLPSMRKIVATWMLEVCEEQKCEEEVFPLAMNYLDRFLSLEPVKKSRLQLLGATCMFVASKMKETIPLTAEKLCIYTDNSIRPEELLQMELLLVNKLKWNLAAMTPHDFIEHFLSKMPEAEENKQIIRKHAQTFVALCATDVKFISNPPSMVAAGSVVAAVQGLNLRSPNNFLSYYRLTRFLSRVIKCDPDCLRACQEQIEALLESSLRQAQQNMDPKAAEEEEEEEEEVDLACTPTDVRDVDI
Sequence of CDK1/cyclin B (P06493 whole entry, species assumed): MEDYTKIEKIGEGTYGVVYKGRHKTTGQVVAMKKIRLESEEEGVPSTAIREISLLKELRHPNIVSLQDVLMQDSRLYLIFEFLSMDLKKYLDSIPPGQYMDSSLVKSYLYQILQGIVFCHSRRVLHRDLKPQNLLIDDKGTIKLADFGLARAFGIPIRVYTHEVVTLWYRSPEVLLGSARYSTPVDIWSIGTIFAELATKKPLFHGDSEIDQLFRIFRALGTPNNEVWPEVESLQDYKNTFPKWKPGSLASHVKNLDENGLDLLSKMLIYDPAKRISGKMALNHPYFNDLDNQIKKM
Sequence of CDK1/cyclin B (P14635 whole entry partner, species assumed): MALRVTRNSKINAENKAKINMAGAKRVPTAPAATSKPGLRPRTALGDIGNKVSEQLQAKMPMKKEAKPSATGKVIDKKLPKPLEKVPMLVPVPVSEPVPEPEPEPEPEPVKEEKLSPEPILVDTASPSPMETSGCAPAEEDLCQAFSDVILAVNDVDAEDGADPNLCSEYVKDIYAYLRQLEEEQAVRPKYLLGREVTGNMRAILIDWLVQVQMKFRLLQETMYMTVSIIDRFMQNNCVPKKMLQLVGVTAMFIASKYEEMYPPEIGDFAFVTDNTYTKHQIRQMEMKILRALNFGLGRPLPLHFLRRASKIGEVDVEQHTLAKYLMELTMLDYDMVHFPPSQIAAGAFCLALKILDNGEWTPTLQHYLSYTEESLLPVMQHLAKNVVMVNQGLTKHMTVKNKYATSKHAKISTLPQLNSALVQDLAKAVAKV

Compound | IC50 (GSK3β) [nM] | IC50 (GSK3α) [nM] | anti-HIV activity based on TI (therapeutic index: TC50/IC50) (HIV-1) | Ki (CDK4/cyclin D1) [nM] | Ki (CDK9/cyclin T1) [nM] | Ki (CDK2/cyclin A) [nM] | Ki (CDK2/cyclin E) [nM] | Ki (aurora A) [nM] | Ki (CDK7/cyclin H) [nM] | Ki (CDK1/cyclin B) [nM] | further results
Cc1c(-c2ccnc(Nc3cccc(S(N)(=O)=O)c3)n2)sc(=O)n1C [Compound 60, 3-[4-(3,4-Dimethyl-2-oxo-2,3-dihydro-thiazol-5-yl)-pyrimidin-2-ylamino]-benzenesulfonamide] | 1.8 |  | Active | 22 | 0.3 | 21 | 3.4 | 30 | 39 | 21 | 
CC(=O)NCc1ccc(Nc2nccc(-c3sc(=O)n(C)c3C)n2)cc1 [Compound 59, N-{4-[4-(3,4-Dimethyl-2-oxo-2,3-dihydro-thiazol-5-yl)-pyrimidin-2-ylamino]-benzyl}-acetamide] | 18.3 |  | Active | 97 | 7 | 160 | 1.6 | 110 | 210 | 85 | 
Insulin |  |  |  |  |  |  |  |  |  |  | PEPCK gene expression, % of maximum stimulation (PEPCK gene expression): 44.09 ± 11.07%

The next lines start with results.

IC50 (GSK3β) [nM] | IC50 (GSK3α) [nM] | Compound | anti-HIV activity based on TI (therapeutic index: TC50/IC50) (HIV-1) | Ki (CDK4/cyclin D1) [nM] | Ki (CDK9/cyclin T1) [nM] | Ki (CDK2/cyclin A) [nM] | Ki (CDK2/cyclin E) [nM] | Ki (aurora A) [nM] | Ki (CDK7/cyclin H) [nM] | Ki (CDK1/cyclin B) [nM] | further results
70.9 | 61.5 | Cc1c(-c2ccnc(Nc3cccc(S(=O)(=O)NCc4ccccc4)c3)n2)sc(=O)n1C [Compound 77, N-Benzyl-3-[4-(3,4-dimethyl-2-oxo-2,3-dihydro-thiazol-5-yl)-pyrimidin-2-ylamino]-benzenesulfonamide] |  |  |  |  |  |  |  |  | 
15 | 32 | Cc1c(-c2ccnc(Nc3ccc(Cl)c(C(F)(F)F)c3)n2)sc(=O)n1C [Compound 66, 5-[2-(4-Chloro-3-trifluoromethyl-phenylamino)-pyrimidin-4-yl]-3,4-dimethyl-3H-thiazol-2-one] |  |  | 21 |  | 200 |  | 2300 |  | oral bioavailability (blood levels at 30 and 60 min after the glucose load) ([1]; male ZDF fa/fa rats): some oral bioavailability; concentration at 30 min ([1]; male, rat, whole blood, oral, ZDF fa/fa rats, time 30 min): 157 ng/mL; concentration at 60 min ([1]; male, rat, whole blood, oral, ZDF fa/fa rats, time 60 min): 162 ng/mL; IC50 (DYRK1A): 356 nM; % Glucose Decrease AUC (−270–180 min) [2, 3]: 20%; % Glucose decrease-AUC (0–180 min) [2, 3]: 17* %; decreased blood glucose levels [2, 4]: statistically significant; glucose AUC [2, 4]: moderate decrease
6.8 | 3.6 | Cc1c(-c2ccnc(Nc3ccc(C#N)c(C(F)(F)F)c3)n2)sc(=O)n1C [Compound 70, 4-[4-(3,4-Dimethyl-2-oxo-2,3-dihydro-thiazol-5-yl)-pyrimidin-2-ylamino]-2-trifluoromethyl-benzonitrile] |  |  |  |  |  |  |  |  | 
